# Source: patent US10081665B2, “Peptides and combination of peptides for use in immunotherapy against various tumors” (immatics biotechnologies GmbH, priority 2015, dated 2018)
# What was measured:
# [1] = tested on: advanced non-resectable HCC; conditions: advanced non-resectable HCC patients (Chapiro et al., 2014; Llovet et al., 2008); cited from earlier work
# CD8+ T cells = experiment: In vitro immunogenicity: T-cell priming with aAPCs loaded with peptide/MHC complexes and anti-CD28, pMHC multimer readout; assay type: cell-based, human; conditions: in vitro immunogenicity, HLA-A*02 restricted peptides; percentage of positive wells and donors (among evaluable)
# Text: In order to obtain information regarding the immunogenicity of the TUMAPs of the present invention, the inventors performed investigations using an in vitro T-cell priming assay based on repeated stimulations of CD8+ T cells with artificial antigen presenting cells (aAPCs) loaded with peptide/MHC complexes and anti-CD28 antibody.
# In order to perform in vitro stimulations by artificial antigen presenting cells loaded with peptide-MHC complex (pMHC) and anti-CD28 antibody, the inventors first isolated CD8+ T cells from fresh HLA-A*02 leukapheresis products via positive selection using CD8 microbeads (Miltenyi Biotec, Bergisch-Gladbach, Germany) of healthy donors obtained from the University clinics Mannheim, Germany, after informed consent. PBMCs and isolated CD8+ lymphocytes were incubated in T-cell medium (TCM) until use consisting of RPMI-Glutamax (Invitrogen, Karlsruhe, Germany) supplemented with 10% heat inactivated human AB serum (PAN-Biotech, Aidenbach, Germany), 100 U/ml Penicillin/100 μg/ml Streptomycin (Cambrex, Cologne, Germany), 1 mM sodium pyruvate (CC Pro, Oberdorla, Germany), 20 μg/ml Gentamycin (Cambrex). 2.5 ng/ml IL-7 (PromoCell, Heidelberg, Germany) and 10 U/ml IL-2 (Novartis Pharma, Nürnberg, Germany) were also added to the TCM at this step. Generation of pMHC/anti-CD28 coated beads, T-cell stimulations and readout was performed in a highly defined in vitro system using four different pMHC molecules per stimulation condition and 8 different pMHC molecules per readout condition.
# The purified co-stimulatory mouse IgG2a anti human CD28 Ab 9.3 (Jung et al., 1987) was chemically biotinylated using Sulfo-N-hydroxysuccinimidobiotin as recommended by the manufacturer (Perbio, Bonn, Germany). Beads used were 5.6 μm diameter streptavidin coated polystyrene particles (Bangs Laboratories, Illinois, USA).
# pMHC used for positive and negative control stimulations were A*0201/MLA-001 (peptide […] (SEQ ID NO. 289) from modified Melan-A/MART-1) and A*0201/DDX5-001 ([…] from DDX5, SEQ ID NO. 290), respectively.
# 800,000 beads/200 μl were coated in 96-well plates in the presence of 4×12.5 ng different biotin-pMHC, washed and 600 ng biotin anti-CD28 were added subsequently in a volume of 200 μl. Stimulations were initiated in 96-well plates by co-incubating 1×10^6 CD8+ T cells with 2×10^5 washed coated beads in 200 μl TCM supplemented with 5 ng/ml IL-12 (PromoCell) for 3 days at 37° C. Half of the medium was then exchanged by fresh TCM supplemented with 80 U/ml IL-2 and incubating was continued for 4 days at 37° C. This stimulation cycle was performed for a total of three times. For the pMHC multimer readout using 8 different pMHC molecules per condition, a two-dimensional combinatorial coding approach was used as previously described (Andersen et al., 2012) with minor modifications encompassing coupling to 5 different fluorochromes. Finally, multimeric analyses were performed by staining the cells with Live/dead near IR dye (Invitrogen, Karlsruhe, Germany), CD8-FITC antibody clone SK1 (BD, Heidelberg, Germany) and fluorescent pMHC multimers. For analysis, a BD LSRII SORP cytometer equipped with appropriate lasers and filters was used. Peptide specific cells were calculated as percentage of total CD8+ cells. Evaluation of multimeric analysis was done using the FlowJo software (Tree Star, Oreg., USA). In vitro priming of specific multimer+CD8+ lymphocytes was detected by comparing to negative control stimulations.
# HLA-A*02:01 = HLA-A*02:01 (Homo sapiens, UniProt P04439, D140Y/D185E/D98H/E176V/E277Q/G131W/G231S/I119V/I121R/I166T/I218V/L300P/L318F/N151K/N90K/P208A/P217A/Q86G/Q94H/R138H/R169H/T345S); experiment: MHC binding assay (UV-ligand exchange, beta2m ELISA); conditions: binding to HLA-A*02:01, β2m ELISA
# Summary of the method: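 Peptide-MHC complexes made by UV-ligand exchange of a UV-cleavable peptide for test peptide; exchange yield measured by β2m ELISA on streptavidin-coated plates with samples diluted 100-fold, HRP anti-β2m and TMB read at 450 nm. Refolded HLA-A*02:01/MLA-001 monomers (15-500 ng/ml) served as standards.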
Compound,increase of survival [1],Wells positive [%] (CD8+ T cells),"Peptide exchange (MHC class I binding score, peptide exchange yield) (HLA-A*02:01)"
CNC(=O)c1cc(Oc2ccc(NC(=O)Nc3ccc(Cl)c(C(F)(F)F)c3)cc2)ccn1 [Sorafenib],about 3 months,,
257 (KLIDHQGLYL; listed as Homo sapiens) [compound 257],,+ (<20% = +),+++ (≥50 = +++)
14 (YTFSGDVQL; listed as Homo sapiens) [compound 14],,+ (<20% = +),+++ (≥50 = +++)
264 (TLHDQVHLL; listed as Homo sapiens) [compound 264],,+ (<20% = +),++ (≥20% = ++)
4 (VLFGELPAL; listed as Homo sapiens) [compound 4],,+ (<20% = +),+++ (≥50 = +++)
263 (SIIEYLPTL; listed as Homo sapiens) [compound 263],,+ (<20% = +),+++ (≥50 = +++)
